One experiment deals with Human lung tryptase. The experiment can be described thus: Ki determination, human lung tryptase (Tosyl-Gly-Pro-Arg-pNA substrate). It counts as biochemical. The conditions noted are these: 50 mM Tris-HCl pH 8.0, 37° C., 1 nM tryptase, 320 μM GPR-pNA; read-out: Experimentally Determined Ki, Tryptase. As to the method: (§1) Protease inhibition was assayed according to published procedures with minor modifications using various proteases and specific chromogenic peptide p-nitroanilide substrates. Assays were performed in Costar ultra-low cluster 96-well microtiter plate (Costar Corning Corp., Cambridge Mass.). Each protease was incubated with various concentrations of the test compound for 15 min. at 37° C. or as otherwise indicated, in specific assay buffer, and the residual activity was then measured by addition of the substrate. p-Nitroaniline produced by the proteolysis was determined by measuring the change in absorbance at 405 nm on a SpectraMAX 340 plate reader (Molecular devices, Sunnyvale, Calif.).
(§2) 1. The inhibition constant, Ki is calculated from individual data points using the equation for a tight-binding inhibitor (See Beith, "Proteinase Inhibitors-Proceedings of 2nd Int. Res. Conference", Fritz, et al. eds, New York, p.4463-4469 (1974)):
(§3) vi /vo [((Ki '+[I]+[E]o)^2 -4 [I]o
(§4) [E]o)^1/2 (Ki '+[I]o -[E]o)]/2[E]o
(§5) where Ki ' is apparent inhibition constant; vi and vo are the inhibited and uninhibited rates, respectively; [I]o and [E]o are the total concentrations of inhibitor and enzyme, respectively.
(§6) [note: [E]o is determined by active site titration of enzyme]
(§7) The Ki values are obtained by correcting Ki ' values for the effect of substrate concentration according to: [formula]
(§8) 2. Other inhibition data (Ki >>[E]o), the Ki is calculated from using the equations for a competitive inhibitor: [formula]
Human lung tryptase purchased from Cortex Biochem (San Leandro, Calif.) was purified further on a Superdex 200 gel-filtration column. The active-site concentration of the enzyme was determined by spectrophotometric titration with 4-nitrophenyl 4'-guanidinobenzoate according to Schwartz, et al., J. Immunol., 114, 2304-2311 (1990). Tryptase activity was measured according to the procedures of Schwartz, et al., J. Biol. Chem., 261, 7372-7379 (1986) (See also, Schwartz, L. B., Methods In Enzymology, 244, 88 (1994)) with minor modifications, using Tosyl-Gly-Pro-Arg-p-nitroanilide ("GPR-pNA", Sigma Chemical Co., St. Louis, Mo., T-1637) as a chromogenic substrate. The reaction was performed in 50 mM Tris-HCl, pH 8.0, containing 150 mM NaCl and 0.02% Triton X-100 at 37° C. in Costar ultra-low cluster 96-well microtiter plates (Costar Corning Corp., Cambridge, Mass.). The amount of pNA produced by tryptase was determined by measuring the change in absorbance at 405 nm on a SpectraMAX 340 plate reader (Molecular devices, Sunnyvale, Calif.). The Km for the substrate was determined by Lineweaver-Burk analysis from initial velocities of substrate hydrolysis. The inhibition assay was carried out in a total volume of 200 μL. Tryptase (30 μL- final concentration 1 nM) was incubated with various concentrations of sample compound (50 μL) to be tested in the above assay buffer for 5 min. The reaction was started by the addition of substrate GPR-pNA (40 μL-final concentration 320 μM), and the residual activity was measured after 15 min. of incubation. The inhibition constant, Ki, was determined by fitting the inhibition data to a two-site competitive binding equation using data analysis program GraphPad PRISM (GraphPad Software, Inc., San Diego, Calif.).
(§9) The inhibition constant (Ki) of the test compounds against each proteolytic enzyme was determined according to Zitnik et al., Biochem. Biophys. Res. Commun. 232, 687-697 (1997)).

Experiment [1] concerns the target T1, Human Neutrophil elastase (Homo sapiens, UniProt P08246).
T1 construct: from tissue; host or cells: human neutrophils
T1 sequence (P08246 30-267): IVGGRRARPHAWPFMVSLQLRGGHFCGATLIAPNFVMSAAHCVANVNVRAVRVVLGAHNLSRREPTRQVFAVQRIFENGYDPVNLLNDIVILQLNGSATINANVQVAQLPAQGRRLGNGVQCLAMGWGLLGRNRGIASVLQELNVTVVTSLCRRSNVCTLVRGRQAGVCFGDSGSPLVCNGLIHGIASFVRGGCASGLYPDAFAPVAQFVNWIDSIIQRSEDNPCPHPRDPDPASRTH
The experiment can be described thus: Ki determination, human neutrophil elastase (pyroGlu-Pro-Val-pNA). It counts as biochemical. The following applies: 100 mM Tris-HCl, pH 8.3, 0.96 M NaCl, 1% BSA; read-out: Experimentally Determined Ki, Elastase. As to the method: as §1, §2, §3, §4, §5, §6, §7, §8
Human Neutrophil elastase activity was determined by using pyroGlu-Pro-Val-pNA in 100 mM Tris-HCl, pH 8.3, 0.96 M NaCl, 1% BSA (See Kramps, et al. Scand. J. Clin. Lab. Invest. 43, 427-432 (1983)).
as §9

Usually pKi stands for the negative decadic logarithm of the Ki, by convention in mol/L.

pKi: −log10 of the molar value.

For `N=C(N)c1cccc(S(=O)(=O)NCc2ccc(OCCCCCCOc3ccc(CNS(=O)(=O)c4cccc(C(=N)N)c4)cc3)cc2)c1` [Example 43, 1,6-Bis-{4-[(3-carbamimidoyl-benzenesulfonylamino)-methyl]-phenoxy}-hexane], the negative-log Ki (pKi) is 6.96 at Human lung tryptase and less than 4.00 in experiment [1].
The matching figures for `N=C(N)c1cccc(S(=O)(=O)NCc2ccc(OCCCCCCCOc3ccc(CNS(=O)(=O)c4cccc(C(=N)N)c4)cc3)cc2)c1` [Example 45, 1,7-Bis-{4-[(3-carbamimidoyl-benzenesulfonylamino)-methyl]-phenoxy}-heptane]: 6.10 and less than 4.00.
The matching figures for `N=C(N)c1cccc(S(=O)(=O)NCc2ccc(OCCCOc3ccc(CNS(=O)(=O)c4cccc(C(=N)N)c4)cc3)cc2)c1` [Example 49, 3,1-Bis-{4-[(3-carbamimidoyl-benzenesulfonylamino)-methyl]-phenoxy}-propane]: 7.70 and less than 4.00.
The matching figures for `N=C(N)c1cccc(S(=O)(=O)NCc2ccc(OCCOc3ccc(CNS(=O)(=O)c4cccc(C(=N)N)c4)cc3)cc2)c1` [Example 51, 1,2-Bis-{4-[(3-carbamimidoyl-benzenesulfonylamino)-methyl]-phenoxy}-ethane]: 7.52 and less than 4.00.
Take `N=C(N)c1cccc(S(=O)(=O)NCc2ccc(COCc3ccc(CNS(=O)(=O)c4cccc(C(=N)N)c4)cc3)cc2)c1` [Example 53, 1,3-Bis-{4-[(3-carbamimidoyl-benzenesulfonylamino)-methyl]-phenyl}-2-oxapropane]: the pKi at Human lung tryptase is 7.00; in experiment [1], less than 4.00.
The matching figures for `N=C(N)c1cccc(C(=O)NCc2ccc(OCCCCCCOc3ccc(CNC(=O)c4cccc(C(=N)N)c4)cc3)cc2)c1` [Example 57, 1,6-Bis-{4-[(3-carbamimidoyl-benzenecarbonylamino)-methyl]-phenoxy}-hexane]: 8.00 and less than 4.00.
`N=C(N)c1ccc(C(=O)NCc2ccc(OCCCCCCCOc3ccc(CNC(=O)c4ccc(C(=N)N)cc4)cc3)cc2)cc1` [Example 58, 1,7-Bis-{4-[(4-carbamimidoyl-benzenecarbonylamino)-methyl]-phenoxy}-heptane]: the results for the pKi (on Human lung tryptase; in experiment [1]) were 9.00 and less than 4.00, respectively.
The matching figures for `N=C(N)c1cccc(C(=O)NCc2ccc(OCCCCCCCOc3ccc(CNC(=O)c4cccc(C(=N)N)c4)cc3)cc2)c1` [Example 59, 1,7-Bis-{4-[(3-carbamimidoyl-benzenecarbonylamino)-methyl]-phenoxy}-heptane]: 7.10 and less than 4.00.
As for `N=C(N)c1ccc(C(=O)NCc2ccc(OCCCCOc3ccc(CNC(=O)c4ccc(C(=N)N)cc4)cc3)cc2)cc1` [Example 60, 1,4-Bis-{4-[(4-carbamimidoyl-benzenecarbonylamino)-methyl]-phenoxy}-butane], the figures for the pKi (at Human lung tryptase; in experiment [1]) were 9.70 and less than 4.00, respectively.
With `N=C(N)c1cccc(C(=O)NCc2ccc(OCCCCOc3ccc(CNC(=O)c4cccc(C(=N)N)c4)cc3)cc2)c1` [Example 61, 1,4-Bis-{4-[(3-carbamimidoyl-benzenecarbonylamino)-methyl]-phenoxy}-butane], the negative logarithm of the Ki (pKi) on Human lung tryptase was 8.00; in experiment [1] it was less than 4.00.
The matching figures for `N=C(N)c1ccc(C(=O)NCc2ccc(OCCCOc3ccc(CNC(=O)c4ccc(C(=N)N)cc4)cc3)cc2)cc1` [Example 62, 1,3-Bis-{4-[(4-carbamimidoyl-benzoylamino)-methyl]-phenoxy}-propane]: 9.30 and less than 4.00.
The matching figures for `N=C(N)c1cccc(C(=O)NCc2ccc(OCCCOc3ccc(CNC(=O)c4cccc(C(=N)N)c4)cc3)cc2)c1` [Example 63, 1,3-Bis-{4-[(3-carbamimidoyl-benzoylamino)-methyl]-phenoxy}-propane]: 7.70 and less than 4.00.

The record behind these values is patent publication US6221914A, “Sulfonamide bridging compounds that inhibit tryptase activity” (Array Biopharma Inc., priority 1998, dated 2001).
